pIC50: −log10 of the molar value. Each block holds one compound with its values, some of them ahead of it.
Key:
Format in all cases: biochemical
IPMK = IPMK (Homo sapiens (Human), UniProt Q8NFU5); assay: Enzyme-coupled assay, IPMK IC50
IP6K3 = IP6K3 (Homo sapiens (Human), UniProt Q96PC2); assay: Enzyme-coupled assay of IP6K3 activity (Dipp1-coupled, malachite green Pi release); conditions: enzyme-coupled assay
IP6K1 = IP6K1 (Homo sapiens (Human), UniProt Q92551); assay: Enzyme-coupled assay of IP6K1 activity (Dipp1-coupled, malachite green Pi release)
Description: (§1) […] The cells were disrupted using a constant cell disruption system (Constant Systems) under 20 kPsi.
(§2) Pi release was determined with a malachite green colorimetric assay.^45 Where indicated, TNP (Cayman Chemical) was added to the assays (FIG. 2A-E).

IP6K2 = IP6K2 (Homo sapiens (Human), UniProt Q9UHH9); assay: Enzyme-coupled assay of IP6K2 activity (Dipp1-coupled, malachite green Pi release)
Description: as §1, §2

[1] = determined from enzyme-coupled assays

Chain of IP6K2 (Q9UHH9 whole entry): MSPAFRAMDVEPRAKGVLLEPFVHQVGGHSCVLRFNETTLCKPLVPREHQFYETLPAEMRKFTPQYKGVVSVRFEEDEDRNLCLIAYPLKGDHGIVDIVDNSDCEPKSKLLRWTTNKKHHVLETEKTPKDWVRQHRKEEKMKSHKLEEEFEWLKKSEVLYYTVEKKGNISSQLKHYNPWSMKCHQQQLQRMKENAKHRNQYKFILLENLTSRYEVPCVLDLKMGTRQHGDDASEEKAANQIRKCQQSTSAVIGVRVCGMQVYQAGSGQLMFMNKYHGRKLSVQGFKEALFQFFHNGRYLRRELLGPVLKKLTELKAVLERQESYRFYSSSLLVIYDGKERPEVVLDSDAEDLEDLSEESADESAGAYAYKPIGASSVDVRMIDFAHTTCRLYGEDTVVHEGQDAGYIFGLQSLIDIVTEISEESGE
Chain of IPMK (Q8NFU5 whole entry, species assumed): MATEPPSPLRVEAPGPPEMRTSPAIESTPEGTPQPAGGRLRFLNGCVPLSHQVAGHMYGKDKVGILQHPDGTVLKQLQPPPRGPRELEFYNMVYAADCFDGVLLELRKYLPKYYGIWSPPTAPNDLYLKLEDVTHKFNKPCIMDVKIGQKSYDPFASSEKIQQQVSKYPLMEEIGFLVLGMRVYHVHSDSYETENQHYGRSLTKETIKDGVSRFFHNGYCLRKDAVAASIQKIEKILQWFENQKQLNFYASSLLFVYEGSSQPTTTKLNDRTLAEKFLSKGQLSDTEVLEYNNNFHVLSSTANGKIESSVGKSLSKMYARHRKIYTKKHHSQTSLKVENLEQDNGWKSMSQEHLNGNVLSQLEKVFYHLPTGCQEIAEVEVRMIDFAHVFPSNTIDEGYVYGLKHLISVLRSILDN
Chain of IP6K3 (Q96PC2 whole entry): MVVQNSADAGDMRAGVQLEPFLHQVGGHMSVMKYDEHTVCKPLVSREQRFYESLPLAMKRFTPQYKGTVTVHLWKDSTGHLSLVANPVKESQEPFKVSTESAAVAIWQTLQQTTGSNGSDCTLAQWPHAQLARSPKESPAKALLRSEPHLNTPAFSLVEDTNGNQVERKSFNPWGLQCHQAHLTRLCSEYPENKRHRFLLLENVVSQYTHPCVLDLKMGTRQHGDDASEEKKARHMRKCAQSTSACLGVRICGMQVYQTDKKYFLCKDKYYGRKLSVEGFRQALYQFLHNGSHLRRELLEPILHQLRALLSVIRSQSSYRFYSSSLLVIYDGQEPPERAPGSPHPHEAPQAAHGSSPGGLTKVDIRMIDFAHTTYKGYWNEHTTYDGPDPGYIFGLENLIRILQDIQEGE
Chain of IP6K1 (Q92551 whole entry): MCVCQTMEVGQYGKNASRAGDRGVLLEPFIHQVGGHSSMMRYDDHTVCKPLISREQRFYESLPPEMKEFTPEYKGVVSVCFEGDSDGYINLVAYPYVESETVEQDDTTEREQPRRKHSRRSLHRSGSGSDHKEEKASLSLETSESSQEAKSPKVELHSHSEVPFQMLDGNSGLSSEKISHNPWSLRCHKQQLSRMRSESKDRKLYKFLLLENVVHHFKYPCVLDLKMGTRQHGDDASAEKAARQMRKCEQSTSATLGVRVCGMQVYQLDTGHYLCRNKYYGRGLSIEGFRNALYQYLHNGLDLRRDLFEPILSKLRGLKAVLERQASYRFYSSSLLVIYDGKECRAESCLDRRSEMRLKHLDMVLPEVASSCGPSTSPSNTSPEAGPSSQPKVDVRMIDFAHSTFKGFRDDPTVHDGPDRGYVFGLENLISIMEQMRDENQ

pIC50 (IPMK; enzyme-coupled assay, Table 2): 6.00 to 7.00
pIC50 (IP6K3; Table 2): 6.00 to 7.00
Compound: O=C(O)c1ccc2noc(-c3ccc(Oc4ccccc4)cc3)c2c1 [Compound 24]

pIC50 (IPMK; enzyme-coupled assay, Table 3): 4.00 to 6.00
pIC50 (IP6K3; Table 3): 4.00 to 6.00
Compound: O=C(O)c1ccc2noc(-c3ccc(N4CCCC4=O)cc3)c2c1 [Compound 56]

IPMK IC50 (IPMK; enzyme-coupled assay, Table 3): −
pIC50 (IP6K3; Table 3): 4.00 to 6.00
Compound: O=C(O)c1ccc2noc(-c3ccc(N4CCCCC4)cc3)c2c1 [Compound 55]

pIC50 (IP6K3; Table 1): 4.00 to 6.00
pIC50 (IP6K1; enzyme-coupled assay, Table 1): 7.00 to 8.00
pIC50 (IP6K2; enzyme-coupled assay, Table 1): 7.00 to 8.00
Compound: Cc1cc(C)cc(-c2onc3ccc([C@@H]4C[C@H]4C(=O)O)cc23)c1 [Compound 17]

pIC50 (IP6K3; Table 1): 6.00 to 7.00
pIC50 (IP6K1; enzyme-coupled assay, Table 1): 6.00 to 7.00
pIC50 (IP6K2; enzyme-coupled assay, Table 1): 6.00 to 7.00
Compound: Cc1cc(C)cc(-c2onc3ccc(/C=C/C(=O)O)cc23)c1 [Compound 11]

pIC50 (IPMK; enzyme-coupled assay, Table 2): 4.00 to 6.00
pIC50 (IP6K3; Table 2): 4.00 to 6.00
Compound: O=C(O)c1ccc2noc(-c3cccc(Oc4ccccn4)c3)c2c1 [Compound 29]

pIC50 (IP6K3; Table 1): 6.00 to 7.00
Compound: O=C(O)/C=C/c1ccc2noc(-c3ccc(Oc4ccccc4)cc3)c2c1 [Compound 15]

pIC50 (IPMK; enzyme-coupled assay, Table 2): 4.00 to 6.00
pIC50 (IP6K3; Table 2): 6.00 to 7.00
Compound: O=C(O)c1ccc2noc(-c3ccc(NC(=O)c4ccccc4)cc3)c2c1 [Compound 46]

pIC50 (IPMK; enzyme-coupled assay, Table 2): 7.00 to 8.00
pIC50 (IP6K3; Table 2): 4.00 to 6.00
Compound: O=C(O)c1ccc2noc(-c3cccc(NC(=O)C4CC4)c3)c2c1 [Compound 42]

pIC50 (IP6K3; Table 6): 6.00 to 7.00
pIC50 (IP6K1; enzyme-coupled assay, Table 6): 4.00 to 6.00
pIC50 (IP6K2; enzyme-coupled assay, Table 6): 4.00 to 6.00
Compound: O=C(O)c1ccc2onc(-c3ccccc3)c2c1 [Cmpd 91]

pIC50 (IPMK; enzyme-coupled assay, Table 2): 7.00 to 8.00
pIC50 (IP6K3; Table 2): 4.00 to 6.00
Compound: O=C(O)c1ccc2noc(-c3cccc(Oc4ncc(Cl)cc4Cl)c3)c2c1 [Compound 30]

pIC50 (IPMK; enzyme-coupled assay, Table 2): 4.00 to 6.00
pIC50 (IP6K3; Table 2): 4.00 to 6.00
pIC50 (IP6K1; enzyme-coupled assay, Table 2): 6.00 to 7.00
Compound: O=C(O)c1ccc2noc(-c3ccc(Oc4ncc(Cl)cc4Cl)cc3)c2c1 [Compound 28]

pIC50 (IPMK; enzyme-coupled assay, Table 2): 4.00 to 6.00
pIC50 (IP6K3; Table 2): 6.00 to 7.00
Compound: O=C(O)c1ccc2noc(-c3ccc(NC(=O)C4CCCC4)cc3)c2c1 [Compound 43]

pIC50 (IP6K3; Table 1): 4.00 to 6.00
pIC50 (IP6K1; enzyme-coupled assay, Table 1): 6.00 to 7.00
Compound: O=C(O)/C=C/c1ccc2noc(-c3ccccc3)c2c1 [Compound 10]

IPMK IC50 (IPMK; enzyme-coupled assay, Table 2): −
pIC50 (IP6K3; Table 2): 6.00 to 7.00
Compound: O=C(O)c1ccc2noc(-c3ccc(NC(=O)c4ccncn4)cc3)c2c1 [Compound 47]

IP6K3 IC50 (IP6K3; Table 1): −
Compound: CN(C)C(=O)/C=C/c1ccc2noc(-c3ccccc3)c2c1 [Compound 9]

pIC50 (IP6K3; Table 4): 6.00 to 7.00
pIC50 (IP6K1; enzyme-coupled assay, Table 4): 7.00 to 8.00
pIC50 (IP6K2; enzyme-coupled assay, Table 4): 7.00 to 8.00
Compound: c1ccc(-c2ccc(-c3onc4ccc(-c5nnn[nH]5)cc34)cc2)cc1 [Compound 68]

pIC50 (IPMK; enzyme-coupled assay, Table 2): 6.00 to 7.00
pIC50 (IP6K3; Table 2): 4.00 to 6.00
Compound: Cc1cc(C)cc(-c2onc3ccc(C(=O)O)cc23)c1 [Compound 19]

pIC50 (IP6K3; Table 1): 4.00 to 6.00
Compound: O=C(O)/C=C/c1ccc2noc(-c3ccc(OC(F)(F)F)cc3)c2c1 [Compound 14]

IPMK IC50 (IPMK; enzyme-coupled assay, Table 2): −
pIC50 (IP6K3; Table 2): 4.00 to 6.00
Compound: Cc1cccc(-c2onc3ccc(C(=O)O)cc23)c1 [Compound 18, 3-(m-tolyl)benzo[c]isoxazole-5-carboxylic acid]

pIC50 (IP6K3; Table 1): 6.00 to 7.00
Compound: O=C(O)/C=C/c1ccc2noc(-c3ccc(-c4ccccc4)cc3)c2c1 [Compound 16]

pIC50 (IPMK; enzyme-coupled assay, Table 2): 7.00 to 8.00
pIC50 (IP6K3; Table 2): 6.00 to 7.00
Compound: O=C(O)c1ccc2noc(-c3cccc(Oc4ccccc4)c3)c2c1 [Compound 33]

pIC50 (IPMK; enzyme-coupled assay, Table 3): 7.00 to 8.00
pIC50 (IP6K3; Table 3): 4.00 to 6.00
Compound: O=C(O)c1ccc2noc(-c3ccc(Cc4ccccc4)cc3)c2c1 [Compound 54, 3-(4-benzylphenyl)benzo[c]isoxazole-5-carboxylic acid]

pIC50 (IPMK; [1]): 6.00 to 7.00
pIC50 (IP6K1; [1]): 6.00 to 7.00
pIC50 (IP6K2; [1]): 4.00 to 6.00
Compound: O=C(Nc1ccc(-c2onc3ccc(-c4noc(=O)[nH]4)cc23)cc1)C1CNC1 [Cmpd 137]

pIC50 (IPMK; enzyme-coupled assay, Table 3): 7.00 to 8.00
pIC50 (IP6K3; Table 3): 6.00 to 7.00
Compound: O=C(O)c1ccc2noc(-c3ccc(-c4ccncc4)cc3)c2c1 [Compound 58]

pIC50 (IPMK; [1]): 7.00 to 8.00
pIC50 (IP6K1; [1]): 6.00 to 7.00
pIC50 (IP6K2; [1]): 6.00 to 7.00
Compound: O=c1[nH]c(-c2ccc3noc(-c4cccc(OC5CCN(CCO)CC5)c4)c3c2)no1 [Cmpd 135]

Source: patent publication US20250154115A1, “ARYLBENZOISOXAZOLE COMPOUNDS AS IP6K AND IPMK INHIBITORS AND METHODS OF USE THEREOF” (THE UNIVERSITY OF NORTH CAROLINA AT CHAPEL HILL, priority 2022, published 2025)
